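Five compound concentrations were applied to cells in 96-well plates for 48 hours; endpoints were derived by simple linear interpolation of the resulting dose-response curve. Here, GI50 denotes the concentration required for 50% inhibition of growth.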 Calls of active or inactive are those of the source. Rule as the data show it: active = GI50 up to about 1.1 µM and inactive = higher.

From ChEMBL document CHEMBL1201862, “PubChem BioAssay data set” (2004) come the findings set out here.

Among the test systems are HOP-62; MDA-MB-435; SF-539; KM12; SK-MEL-2; OVCAR-3; Hs-578T; SW-620; NCI/ADR-RES; OVCAR-5; DU-145; T47D; OVCAR-4; MCF7; COLO 205; HT-29; HCC 2998; A498; M14; NCI-H23.
Test in all cases: growth of human tumour cells (NCI), 48 h

Consider `C=C(C)C(=O)O[C@H]1[C@H]2[C@H](OC(=O)[C@H]2C)[C@H](O)[C@@H](C)[C@@H]2C=CC(=O)[C@]21C`, for which the GI50 in the test on HOP-62 was 9.06 µM (inactive); in the test on MDA-MB-435, 2.56 µM (inactive); with SF-539, 3.67 µM (inactive); with KM12 it was 2.51 µM (inactive); with SK-MEL-2, 4.13 µM (inactive); in the test with OVCAR-3, 4.52 µM (inactive). In addition, the GI50 in the test with Hs-578T was 4.9 µM (inactive); in the test with SW-620, 2.72 µM (inactive); with NCI/ADR-RES it was 3.22 µM (inactive); with OVCAR-5 it was 8.61 µM (inactive); in the test with DU-145, 3.9 µM (inactive); in the test with T47D, 4.78 µM (inactive). The GI50 is 5.64 µM (inactive) with OVCAR-4; 4.19 µM (inactive) in the test with MCF7; 3.27 µM (inactive) in the test with COLO 205; 3.33 µM (inactive) in the test on HT-29; 2.45 µM (inactive) in the test on HCC 2998; 2.69 µM (inactive) in the test with A498. In addition, the GI50 was 5.97 µM (inactive) in the test with M14 and 3.71 µM (inactive) in the test on NCI-H23.
Take `CN(C)c1nc(N)nc(CS)n1`: the GI50 was 56.1 µM (inactive) with HOP-62; > 100 µM (inactive) in the test on MDA-MB-435; > 100 µM (inactive) in the test on SF-539; > 100 µM (inactive) in the test on KM12; 36.2 µM (inactive) in the test on SK-MEL-2; > 100 µM (inactive) in the test on OVCAR-3. The GI50 with Hs-578T, with SW-620, in the test with NCI/ADR-RES, in the test with OVCAR-5, with DU-145 and in the test with T47D was > 100 µM (inactive) each time. Moreover, the GI50 is 80.7 µM (inactive) in the test on OVCAR-4; > 100 µM (inactive) in the test with MCF7; > 100 µM (inactive) with COLO 205; > 100 µM (inactive) in the test on HT-29; > 100 µM (inactive) in the test on HCC 2998; > 100 µM (inactive) in the test on A498. Also, the GI50 with M14 and in the test with NCI-H23 was > 100 µM (inactive) in each case.
As for `O=C1C=C(Cl)C(=O)C(c2ccc(Cl)cc2)=C1`, the GI50 in the test on HOP-62 is 21.1 µM (inactive); in the test on MDA-MB-435, 17.9 µM (inactive); in the test with SF-539 it was 16.9 µM (inactive); in the test on KM12, 32.3 µM (inactive); in the test on SK-MEL-2, 18.6 µM (inactive); with OVCAR-3, 16.6 µM (inactive). Also, the GI50 with Hs-578T is 26.5 µM (inactive); in the test with SW-620, 25.5 µM (inactive); with NCI/ADR-RES, 26.4 µM (inactive); with OVCAR-5, 17 µM (inactive); with DU-145, 22 µM (inactive); in the test with T47D, 13.7 µM (inactive). For the same compound, the GI50 with OVCAR-4 is 17.7 µM (inactive); in the test with MCF7, 16.3 µM (inactive); in the test with COLO 205, 16.4 µM (inactive); with HT-29, 23.7 µM (inactive); in the test on HCC 2998, 18.1 µM (inactive); in the test with A498, 23.8 µM (inactive). Besides, the GI50 in the test with M14 is 17 µM (inactive); in the test on NCI-H23, 23.2 µM (inactive).
Take `COc1ccc2[nH]cc(C=C3C(=O)NC(=S)NC3=O)c2c1`: the GI50 is 45.9 µM (inactive) in the test with HOP-62; > 100 µM (inactive) in the test with MDA-MB-435; > 100 µM (inactive) in the test on SF-539; > 100 µM (inactive) in the test with KM12; 92.3 µM (inactive) with SK-MEL-2; > 100 µM (inactive) in the test on OVCAR-3. For the same compound, the GI50 in the test with Hs-578T was 45.8 µM (inactive); in the test with SW-620, > 100 µM (inactive); in the test with NCI/ADR-RES, > 100 µM (inactive); in the test on OVCAR-5, > 100 µM (inactive); in the test with DU-145, > 100 µM (inactive); in the test on T47D, > 100 µM (inactive). Further, the GI50 in the test on OVCAR-4, in the test with MCF7, in the test with COLO 205, with HT-29, with HCC 2998 and in the test with A498 was > 100 µM (inactive) in each case. For the same compound, the GI50 with M14 was > 100 µM (inactive); in the test with NCI-H23, 31.2 µM (inactive).
Take `COc1ccc(C2CC(c3ccc4ccccc4c3O)=NN2)cc1OC` (stereo not given): the GI50 in the test with HOP-62 was 54.6 µM (inactive); in the test with MDA-MB-435 it was 27 µM (inactive); in the test on SF-539, 31.3 µM (inactive); in the test with KM12 it was 48.4 µM (inactive); in the test with SK-MEL-2, 52 µM (inactive); in the test with OVCAR-3 it was 33.1 µM (inactive). Further, the GI50 in the test on Hs-578T was 76.7 µM (inactive); in the test on SW-620 it was 39.7 µM (inactive); with NCI/ADR-RES it was 32.7 µM (inactive); with OVCAR-5, > 100 µM (inactive); in the test with DU-145 it was 77.6 µM (inactive); with T47D, 45 µM (inactive). For the same compound, the GI50 is 92.7 µM (inactive) with OVCAR-4; 32.7 µM (inactive) with MCF7; 38.7 µM (inactive) in the test with COLO 205; 47.5 µM (inactive) with HT-29; 45.6 µM (inactive) with HCC 2998; 52.6 µM (inactive) in the test with A498. In addition, the values for the GI50 in the test on M14 and in the test with NCI-H23 were 66.2 µM (inactive) and 49.9 µM (inactive), respectively.
Consider `COc1cc2nc(-c3c(F)cccc3F)n(Cc3c(F)cccc3F)c2cc1Cc1c(F)cccc1F`, for which the GI50 with HOP-62 is > 100 µM (inactive); in the test with MDA-MB-435, 8.59 µM (inactive); in the test with SF-539, > 68.7 µM (inactive); in the test with KM12, 3.77 µM (inactive); in the test on SK-MEL-2 it was > 49.8 µM (inactive); in the test on OVCAR-3, 4.73 µM (inactive). In addition, the GI50 in the test on Hs-578T was > 20.5 µM (inactive); with SW-620 it was > 100 µM (inactive); in the test with NCI/ADR-RES, > 100 µM (inactive); in the test with OVCAR-5, > 100 µM (inactive); in the test on DU-145 it was > 100 µM (inactive); in the test on T47D, 4.05 µM (inactive). Further, the GI50 with OVCAR-4 is 1.84 µM (inactive); with MCF7 it was 3.47 µM (inactive); in the test with COLO 205 it was > 100 µM (inactive); with HT-29, 3.53 µM (inactive); with HCC 2998, 20.6 µM (inactive); with A498 it was 3.62 µM (inactive). For the same compound, the GI50 in the test with M14 was > 24.3 µM (inactive); in the test on NCI-H23, > 100 µM (inactive).
Turning to `CC(C)(CN1CCCCC1)C(/C=C/c1ccc(Cl)c(Cl)c1)=N\NC(=O)N/N=C(/C=C/c1ccc(Cl)c(Cl)c1)C(C)(C)CN1CCCCC1`, the GI50 in the test on HOP-62 was 1.87 µM (inactive); in the test with MDA-MB-435, 1.31 µM (inactive); in the test on SF-539, 1.77 µM (inactive); in the test on KM12, 1.63 µM (inactive); in the test on SK-MEL-2, > 10 µM (inactive); with OVCAR-3 it was 1.56 µM (inactive). Besides, the GI50 with Hs-578T was 1.81 µM (inactive); in the test with SW-620, 1.62 µM (inactive); in the test with NCI/ADR-RES it was 1.73 µM (inactive); in the test with OVCAR-5 it was 1.59 µM (inactive); with DU-145, 1.85 µM (inactive); with T47D, 2.05 µM (inactive). Further, the GI50 with OVCAR-4 is 1.71 µM (inactive); in the test on MCF7 it was 1.54 µM (inactive); in the test with COLO 205 it was 1.64 µM (inactive); with HT-29, 0.361 µM (active); with HCC 2998 it was 1.69 µM (inactive); with A498 it was 1.72 µM (inactive). The GI50 in the test on M14 was 0.385 µM (active); in the test with NCI-H23 it was 1.93 µM (inactive).
